Results published in ChEMBL document CHEMBL4270670 (J Med Chem, 2018).

What was measured:
in vitro [1] = conditions: chicken, chicken embryo fibroblasts
Influenza B virus = conditions: mdck
in vitro [2] = conditions: dog, MDCK cells
Influenza A virus [3] = assay: microbe, parasite or virus in culture; conditions: A/Puerto Rico/8/1934(H1N1), MDCK, 48 h
Influenza A virus [4] = assay: microbe, parasite or virus in culture; conditions: MDCK, 48 h
[5] = MRT (0 to infinity) in Sprague-Dawley rat at 20 mg/kg, po by LC-MS analysis; format: ADME, organism-based; conditions: in vivo
Rattus norvegicus [6] = assay: Half life in Sprague-Dawley rat at 20 mg/kg, po by LC-MS analysis; format: ADME, organism-based; conditions: in vivo
Rattus norvegicus [7] = assay: Tmax in Sprague-Dawley rat at 20 mg/kg, po by LC-MS analysis; format: ADME, organism-based; conditions: in vivo
Rattus norvegicus [8] = assay: Cmax in Sprague-Dawley rat at 20 mg/kg, po by LC-MS analysis; format: ADME, organism-based; parameters: dose 20 mg/kg, route oral; conditions: in vivo
[9] = Oral bioavailability in Sprague-Dawley rat at 20 mg/kg by LC-MS analysis; format: ADME, organism-based; conditions: in vivo
Rattus norvegicus [10] = species on record: Rattus norvegicus; conditions: in vivo, po, 20 mg/kg
in vivo = conditions: Sprague-Dawley, rat, po, 20 mg/kg
Influenza A virus [11] = assay: Antiviral activity against Influenza A virus H5N2 infected in specific pathogen free embryonated egg assessed as survival rate at 10 mM preincubated for 1 hr prior to inoculation measured after 48 hrs (reference value: 0%); format: functional
Influenza A virus [12] = assay: Antiviral activity against Influenza A virus H5N2 infected in specific pathogen free embryonated egg assessed as survival rate at 2.5 mM preincubated for 1 hr prior to inoculation measured after 48 hrs (reference value: 0%); format: functional
Influenza A virus [13] = assay: Antiviral activity against Influenza A virus H5N2 infected in specific pathogen free embryonated egg assessed as survival rate at 0.625 mM preincubated for 1 hr prior to inoculation measured after 48 hrs (reference value: 0%); format: functional
Influenza A virus [14] = assay: Antiviral activity against Influenza A virus H5N2 infected in specific pathogen free embryonated egg assessed as survival rate at 0.156 mM preincubated for 1 hr prior to inoculation measured after 48 hrs (reference value: 0%); format: functional
Influenza A virus [15] = assay: Antiviral activity against Influenza A virus H5N2 infected in specific pathogen free embryonated egg assessed as survival rate at 0.039 mM preincubated for 1 hr prior to inoculation measured after 48 hrs (reference value: 0%); format: functional
Influenza A virus [16] = assay: Antiviral activity against Influenza A virus H5N2 infected in specific pathogen free embryonated egg assessed as survival rate at 10 mM preincubated for 1 hr prior to inoculation measured after 72 hrs (reference value: 0%); format: functional
Influenza A virus [17] = assay: Antiviral activity against Influenza A virus H5N2 infected in specific pathogen free embryonated egg assessed as survival rate at 2.5 mM preincubated for 1 hr prior to inoculation measured after 72 hrs (reference value: 0%); format: functional
Influenza A virus [18] = assay: Antiviral activity against Influenza A virus H5N2 infected in specific pathogen free embryonated egg assessed as survival rate at 0.625 mM preincubated for 1 hr prior to inoculation measured after 72 hrs (reference value: 0%); format: functional
Influenza A virus [19] = assay: Antiviral activity against Influenza A virus H5N2 infected in specific pathogen free embryonated egg assessed as survival rate at 0.156 mM preincubated for 1 hr prior to inoculation measured after 72 hrs (reference value: 0%); format: functional
Influenza A virus [20] = assay: Antiviral activity against Influenza A virus H5N2 infected in specific pathogen free embryonated egg assessed as survival rate at 0.039 mM preincubated for 1 hr prior to inoculation measured after 72 hrs (reference value: 0%); format: functional
in vitro [21] = conditions: human, plasma
in vitro [22] = conditions: human, plasma; remark: listed apart in the source
in vitro [23] = conditions: human, plasma; remark: listed apart in the source
in vitro [24] = conditions: human, plasma; remark: listed apart in the source

SMILES: CCC(CC)O[C@@H]1C=C(C(=O)O)C[C@H](NCc2ccc(-c3ccc4sccc4c3)cc2)[C@H]1NC(C)=O
- CC50 at 48 h (in vitro [1]): > 200 µM

SMILES: CCC(CC)O[C@@H]1C=C(C(=O)O)C[C@H](NCc2ccc(Sc3cccs3)cc2)[C@H]1NC(C)=O
- EC50 (Influenza B virus): 8.5 µM
- CC50 at 48 h (in vitro [1]): > 200 µM
- CC50 at 48 h (in vitro [2]): > 250 µM
- EC50 (Influenza A virus [3]): 0.04 µM
- EC50 (Influenza A virus [4]): 79 µM

SMILES: CCC(CC)O[C@@H]1C=C(C(=O)O)C[C@H](NCc2ccc(OC(C)C)cc2)[C@H]1NC(C)=O
- CC50 at 48 h (in vitro [1]): > 200 µM

SMILES: CCC(CC)O[C@@H]1C=C(C(=O)O)C[C@H](NCc2cccc(-c3ccc(SC)cc3)c2)[C@H]1NC(C)=O
- CC50 at 48 h (in vitro [1]): > 200 µM

SMILES: CCC(CC)O[C@@H]1C=C(C(=O)O)C[C@H](NCc2ccc(Cc3ccccc3)cc2)[C@H]1NC(C)=O
- CC50 at 48 h (in vitro [1]): > 200 µM

SMILES: CCOC(=O)C1=C[C@@H](OC(CC)CC)[C@H](NC(C)=O)[C@@H](NCc2ccc(Sc3ccccc3)cc2)C1
- MRT inf [5]: 17.1 h
- t1/2 (Rattus norvegicus [6]): 8.68 h
- Tmax (Rattus norvegicus [7]): 0.57 h
- Cmax (Rattus norvegicus [8]): 445.6 µg/mL
- bioavailability [9]: 7.1%
- AUC (Rattus norvegicus [10]): 1.59462 µg·h/mL
- AUC(0-t) (in vivo): 1.04 µg·h/mL

SMILES: CCC(CC)O[C@@H]1C=C(C(=O)O)C[C@H](NCc2cccc(SC(C)CC)c2)[C@H]1NC(C)=O (stereo partly specified)
- CC50 at 48 h (in vitro [1]): > 200 µM

SMILES: CCC(CC)O[C@@H]1C=C(C(=O)O)C[C@H](NCc2cccc(OC)c2)[C@H]1NC(C)=O
- CC50 at 48 h (in vitro [1]): > 200 µM

SMILES: CCC(CC)O[C@@H]1C=C(C(=O)O)C[C@H](NCc2cccc(SC3CCCC3)c2)[C@H]1NC(C)=O
- CC50 at 48 h (in vitro [1]): > 200 µM

SMILES: CCC(CC)O[C@@H]1C=C(C(=O)O)C[C@H](NCc2ccc(Oc3ccccc3)cc2)[C@H]1NC(C)=O
- CC50 at 48 h (in vitro [1]): > 200 µM

SMILES: CCC(CC)O[C@@H]1C=C(C(=O)O)C[C@H](NCc2ccc(C(=O)c3ccccc3)cc2)[C@H]1NC(C)=O
- CC50 at 48 h (in vitro [1]): > 200 µM

SMILES: CCC(CC)O[C@@H]1C=C(C(=O)O)C[C@H](NCc2ccc(-c3cc4ccccc4s3)cc2)[C@H]1NC(C)=O
- EC50 (Influenza B virus): > 100 µM
- CC50 at 48 h (in vitro [1]): > 200 µM
- CC50 at 48 h (in vitro [2]): > 250 µM
- EC50 (Influenza A virus [3]): 7.2 µM
- EC50 (Influenza A virus [4]): > 100 µM

SMILES: CCC(CC)Oc1ccc(CN[C@H]2CC(C(=O)O)=C[C@@H](OC(CC)CC)[C@@H]2NC(C)=O)cc1
- EC50 (Influenza B virus): > 100 µM
- CC50 at 48 h (in vitro [1]): > 200 µM
- CC50 at 48 h (in vitro [2]): > 250 µM
- EC50 (Influenza A virus [3]): 13 µM
- EC50 (Influenza A virus [4]): > 100 µM

SMILES: CCc1ccc(CN[C@H]2CC(C(=O)O)=C[C@@H](OC(CC)CC)[C@@H]2NC(C)=O)cc1
- CC50 at 48 h (in vitro [1]): > 200 µM

SMILES: CCC(CC)O[C@@H]1C=C(C(=O)O)C[C@H](NCc2ccc(SC(C)CC)cc2)[C@H]1NC(C)=O (stereo partly specified)
- CC50 at 48 h (in vitro [1]): > 200 µM

SMILES: CCC(CC)O[C@@H]1C=C(C(=O)O)C[C@H](NCc2ccc(-c3ccc(SC)cc3)cc2)[C@H]1NC(C)=O
- CC50 at 48 h (in vitro [1]): > 200 µM

SMILES: CCC(CC)O[C@@H]1C=C(C(=O)O)C[C@H](NCc2ccc(C(C)(C)C)cc2)[C@H]1NC(C)=O
- CC50 at 48 h (in vitro [1]): > 200 µM

SMILES: CCC(CC)O[C@@H]1C=C(C(=O)O)C[C@H](NCc2ccc(SC3CCCC3)cc2)[C@H]1NC(C)=O
- CC50 at 48 h (in vitro [1]): > 200 µM

SMILES: CCC(CC)Oc1cccc(CN[C@H]2CC(C(=O)O)=C[C@@H](OC(CC)CC)[C@@H]2NC(C)=O)c1
- CC50 at 48 h (in vitro [1]): > 200 µM

SMILES: CCC(CC)O[C@@H]1C=C(C(=O)O)C[C@H](NCc2ccc(S(=O)(=O)c3ccccc3)cc2)[C@H]1NC(C)=O
- CC50 at 48 h (in vitro [1]): > 200 µM

SMILES: CCC(CC)O[C@@H]1C=C(C(=O)O)C[C@H](NCc2ccc(OC)cc2)[C@H]1NC(C)=O
- EC50 (Influenza B virus): > 100 µM
- CC50 at 48 h (in vitro [1]): > 200 µM
- CC50 at 48 h (in vitro [2]): > 250 µM
- EC50 (Influenza A virus [3]): 3.7 µM
- EC50 (Influenza A virus [4]): > 100 µM

SMILES: CCC(CC)O[C@@H]1C=C(C(=O)O)C[C@H](NCc2ccc(SC3CCCCC3)cc2)[C@H]1NC(C)=O
- EC50 (Influenza B virus): > 100 µM
- CC50 at 48 h (in vitro [1]): > 200 µM
- CC50 at 48 h (in vitro [2]): > 250 µM
- EC50 (Influenza A virus [3]): 17 µM
- EC50 (Influenza A virus [4]): > 100 µM

SMILES: CCC(CC)O[C@@H]1C=C(C(=O)O)C[C@H](NCc2ccc(-c3csc4ccccc34)cc2)[C@H]1NC(C)=O
- CC50 at 48 h (in vitro [1]): > 200 µM

SMILES: CCC(CC)O[C@@H]1C=C(C(=O)O)C[C@H](NCc2ccc(C(C)C)cc2)[C@H]1NC(C)=O
- CC50 at 48 h (in vitro [1]): > 200 µM

SMILES: CCC(CC)O[C@@H]1C=C(C(=O)O)C[C@H](NCc2ccc(SCC(C)C)cc2)[C@H]1NC(C)=O
- CC50 at 48 h (in vitro [1]): > 200 µM

SMILES: CCC(CC)O[C@@H]1C=C(C(=O)O)C[C@H](N)[C@H]1NC(C)=O [OSELTAMIVIR CARBOXYLATE]
- survival at 10000 µM (Influenza A virus [11]): 60%
- survival at 2500 µM (Influenza A virus [12]): 20%
- survival at 625 µM (Influenza A virus [13]): 0%
- survival at 156 µM (Influenza A virus [14]): 0%
- survival at 39 µM (Influenza A virus [15]): 0%
- survival at 10000 µM (Influenza A virus [16]): 0%
- survival at 2500 µM (Influenza A virus [17]): 0%
- survival at 625 µM (Influenza A virus [18]): 0%
- survival at 156 µM (Influenza A virus [19]): 0%
- survival at 39 µM (Influenza A virus [20]): 0%
- EC50 (Influenza B virus): 2.9 µM
- CC50 at 48 h (in vitro [1]): > 200 µM
- CC50 at 48 h (in vitro [2]): > 250 µM
- EC50 (Influenza A virus [3]): 0.041 µM
- EC50 (Influenza A virus [4]): 1.2 µM

SMILES: CC(C)[N+](C)(CCOC(=O)C1c2ccccc2Oc2ccccc21)C(C)C.[Br-] [PROPANTHELINE BROMIDE]
- remaining at 10 min, 2 µM (in vitro [21]): 54.9%
- remaining at 0.5 h, 2 µM (in vitro [22]): 19.1%
- remaining at 1 h, 2 µM (in vitro [23]): 2.1%
- half-life at 2 µM (in vitro [24]): 0.18 h

SMILES: NC(=O)c1ncn([C@@H]2O[C@H](CO)[C@@H](O)[C@H]2O)n1 [RIBAVIRIN]
- CC50 at 48 h (in vitro [1]): > 200 µM

SMILES: CC(=O)N[C@H]1[C@H]([C@H](O)[C@H](O)CO)OC(C(=O)O)=C[C@@H]1NC(=N)N [ZANAMIVIR]
- EC50 (Influenza B virus): 0.9 µM
- CC50 at 48 h (in vitro [1]): > 200 µM
- CC50 at 48 h (in vitro [2]): > 250 µM
- EC50 (Influenza A virus [3]): 0.038 µM
- EC50 (Influenza A virus [4]): 0.3 µM
